US20210024542A1 (Torcept Therapeutics, Inc., priority 2018, published 2021)

Key:
ST486 = assay: OncoPanel cell proliferation assay, ST486; assay type: cell-based, human; conditions: for Cell Count Activity Area: ST486, scale 0-10
Method: (§1) Cells were grown in RPMI 1640, 10% FBS, 2 mM L-alanyl-L-glutamine, 1 mM Na pyruvate, or a special medium. Cells were seeded into 384-well plates and incubated in a humidified atmosphere of 5% CO2 at 37° C. Compounds were added the day following cell seeding. At the same time, a time zero untreated cell plate was generated. After a 3-day incubation period, cells were fixed and stained to allow fluorescence imaging of nuclei. Compounds (1 mM stock solutions) were serially diluted in half-log steps from the highest test concentration ([…]), and assayed over 10 concentrations with a maximum assay concentration of 0.1% DMSO. Automated fluorescence microscopy was carried out using a Molecular Devices ImageXpress Micro XL high-content imager, and images were collected with a 4× objective. 16-bit TIFF images were acquired and analyzed with MetaXpress 5.1.0.41 software.
(§2) Cell proliferation was measured by the fluorescence intensity of an incorporated nuclear dye. The output is referred to as the relative cell count, where the measured nuclear intensity is transformed to percent of control (POC) using the following formula: […]
(§3) Cellular response parameters were calculated using nonlinear regression to a sigmoidal single-site dose response model:
(§4) Where y is a response measured at concentration x, A and B are the lower and upper limits of the response, C is the concentration at the response midpoint (EC50), and D is the Hill Slope (Ref. 1).
(§5) EC50 is the test compound concentration at the curve inflection point or half the effective response (parameter C of the fitted curve solution). GI50 is the concentration needed to reduce the observed growth by half (midway between the curve maximum and the time zero value). “Cell Count Activity Area” is an estimate of the integrated area above the curve (Barretina, et al. The Cancer Cell Line Encyclopedia enables predictive modelling of anticancer drug sensitivity. Nature 483: 603-607). […] In rare instances, values <0 or >10 may be observed. […] Curve-fitting, calculations, and report generation was performed using a custom data reduction engine and MathIQ based software (AIM).

SK-NEP-1 = assay: OncoPanel cell proliferation assay, SK-NEP-1; conditions: SK-NEP-1, scale 0-10
Method: (§6) Cells were seeded into 384-well plates and incubated in a humidified atmosphere of 5% CO2 at 37° C. Compounds were added the day following cell seeding. At the same time, a time zero untreated cell plate was generated. After a 3-day incubation period, cells were fixed and stained to allow fluorescence imaging of nuclei. Compounds (1 mM stock solutions) were serially diluted in half-log steps from the highest test concentration (1 micromol), and assayed over 10 concentrations with a maximum assay concentration of 0.1% DMSO. Automated fluorescence microscopy was carried out using a Molecular Devices ImageXpress Micro XL high-content imager, and images were collected with a 4× objective. 16-bit TIFF images were acquired and analyzed with MetaXpress 5.1.0.41 software.

NCI-H510A = assay: OncoPanel cell proliferation assay, NCI-H510A; assay type: cell-based, human; conditions: for Cell Count Activity Area: scale 0-10
Method: as §1, §2, §3, §4, §5

CEM-C1 = assay: OncoPanel cell proliferation assay, CEM-C1; assay type: cell-based, human; conditions: for Cell Count Activity Area: CEM-C1, scale 0-10; for IC50: Homo sapiens, 72 h, CEM-C1, 3-day incubation, read-out: Cell Count IC50
Method: as §1, §2, §3, §4, §5

CML-T1 = assay: OncoPanel cell proliferation assay, CML-T1; assay type: cell-based, human; conditions: CML-T1, scale 0-10
Method: as §1, §2, §3, §4, §5

AGS = assay: OncoPanel cell proliferation assay, AGS; assay type: cell-based, human; conditions: scale 0-10
Method: as §1, §2, §3, §4, §5

DMS114 = assay: OncoPanel cell proliferation assay, DMS114; assay type: cell-based, human
Method: as §1, with “Cells” for “Cells were grown in RPMI 1640, 10% FBS, 2 mM L-alanyl-L-glutamine, 1 mM Na pyruvate, or a special medium. Cells”
as §2, §3, §4
GI50 is the concentration needed to reduce the observed growth by half (midway between the curve maximum and the time zero value). […] In rare instances, values <0 or >10 may be observed. […] Curve-fitting, calculations, and report generation was performed using a custom data reduction engine and MathIQ based software (AIM).

SK-N-AS = assay: OncoPanel cell proliferation assay, SK-N-AS; assay type: cell-based, human; conditions: for Cell Count Activity Area: scale 0-10
Method: as §1, §2, §3, §4, §5

A101D = assay: OncoPanel cell proliferation assay, A101D; assay type: cell-based, human; conditions: for Cell Count Activity Area: scale 0-10
Method: as §1, §2, §3, §4, §5

CaOV3 = assay: OncoPanel cell proliferation assay, CaOV3; assay type: cell-based, human; conditions: for Cell Count Activity Area: CaOV3, scale 0-10
Method: as §1, §2, §3, §4, §5

RKOE6 = assay: OncoPanel cell proliferation assay, RKOE6; conditions: RKOE6, scale 0-10
Method: as §6

CHP-212 = assay: OncoPanel cell proliferation assay, CHP-212; conditions: for Cell Count Activity Area: CHP-212, scale 0-10
Method: as §6

[1] = Homo sapiens, 72 h, 3-day incubation, read-out: Cell Count EC50
[2] = Homo sapiens, 72 h, 3-day incubation, read-out: Cell Count IC50

Structure (SMILES)	Cell Count Activity Area (ST486)	Cell Count Activity Area (SK-NEP-1)	Cell Count Activity Area (NCI-H510A)	Cell Count Activity Area (CEM-C1)	IC50 (CEM-C1) [µM]	Cell Count Activity Area (CML-T1)	Cell Count Activity Area (AGS)	Cell Count Activity Area (SK-N-AS)	Cell Count Activity Area (A101D)	Cell Count Activity Area (CaOV3)	Cell Count Activity Area (RKOE6)	Cell Count Activity Area (CHP-212)	further results
CN[C@@H]1C[C@H]2O[C@@](C)([C@@H]1OC)n1c3ccccc3c3c4c(c5c6ccccc6n2c5c31)C(=O)NC4 [Staurosporine, reference compound]	4.89	2.78	1.68	4.28	0.0092	4.13	6.19	4.83	4.56	5.31	3.96	4.80	EC50 (DMS114; Homo sapiens, DMS-114, 72 h, DMS114, 3-day incubation, read-out: Cell Count EC50): 0.021 µM; EC50 (SK-N-AS; [1]): 0.0017 µM
CO[C@H]1C[C@@H]2CC[C@@H](C)[C@@](O)(O2)C(=O)C(=O)N2CCCC[C@H]2C(=O)O[C@H]([C@H](C)C[C@@H]2CC[C@@H](O)[C@H](OC)C2)CC(=O)[C@H](C)/C=C(\C)[C@@H](O)[C@@H](OC)C(=O)[C@H](C)C[C@H](C)/C=C/C=C/C=C/1C [Rapamycin, reference compound]	3.99	4.22	1.63	3.61	> 1	4.56	5.67	3.58	2.92	2.40	4.61	4.13	IC50 (ST486; Homo sapiens, 72 h, ST486, 3-day incubation, read-out: Cell Count IC50): > 1 µM; EC50 (NCI-H510A; [1]): > 1 µM; GI50 (NCI-H510A; Homo sapiens, 72 h, 3-day incubation, read-out: Cell Count GI50): > 1 µM; IC50 (NCI-H510A; [2]): > 1 µM; Cell Count Activity Area (DMS114; DMS114, scale 0-10): 4.14; IC50 (DMS114; Homo sapiens, DMS-114, 72 h, DMS114, 3-day incubation, read-out: Cell Count IC50): > 1 µM; IC50 (SK-N-AS; [2]): > 1 µM; IC50 (A101D; [2]): > 1 µM; EC50 (CaOV3; Homo sapiens, Caov-3, 72 h, CaOV3, 3-day incubation, read-out: Cell Count EC50): > 1 µM; GI50 (CaOV3; Homo sapiens, Caov-3, 72 h, CaOV3, 3-day incubation, read-out: Cell Count GI50): > 1 µM; IC50 (CaOV3; Homo sapiens, Caov-3, 72 h, CaOV3, 3-day incubation, read-out: Cell Count IC50): > 1 µM; IC50 (CHP-212; Homo sapiens, CHP-212, 72 h, read-out: Cell Count IC50): > 1 µM
